{"source": "paper PMC11304990", "about": "“Identification of mitochondrial ATP synthase as the cellular target of Ru-polypyridyl-β-carboline complexes by affinity-based protein profiling” (National Science Review, 2024)", "key": {"A549 cells": {"test_system": "A549 cells", "assay": "Anticancer activity in wild type vs ATPase siRNA knockdown cells", "format": "cell-based, human", "details": "compared to wild-type cells", "experimental": "Figure 1. Validation of ATP5F1 as the molecular target of Ru5. (A) Proteins pulled down by streptavidin from A549 cells treated with Ru5a followed by PAL. The cells were treated with Ru5a (50 μM) for 12 h and irradiated with UV light for 20 min. (B) The top five peptides enriched by Ru5a-mediated PAL were identified with the assistance of SILAC-based chemoproteomic studies. H1F0: H1 histone family member 0; HIST4H4: histone cluster 4 H4; HIST3H2BB: histone cluster 3 H2B family member b; ATP5F1E: ATP synthase F1 subunit epsilon; HIST1H2AJ: histone cluster 1 H2A family member J. (C) Pull-down western blotting analysis of ATPase in A549 cells treated with Ru5a. (D) Cellular Ru content in cells treated with Ru5/Ru5a (20 μM, 12 h) measured by ICP-MS. (E) Impact of Ru5/Ru5a (10 μM) on the thermal stability of ATP5F1 measured by CETSA. (F) Impact on the anticancer activities of Ru5/Ru5a against wild type and ATPase knocking down (by siRNA) A549 cells. The relative cellular viability was calculated using the cells without drug treatment in each group as the control group. (G) Inhibition of Ru5/Ru5a on the enzymatic activity of ATPase. (-)-blebbistatin was used as the positive control. (H) Molecular docking of Ru5 with ATPase (PDB: 3ZIA). The red dashes indicate the hydrogen bonds formed between Ru5 and the amino acid residues (SER38 and GLN39). […]"}, "A549 xenograft": {"test_system": "A549 xenograft", "assay": "A549 xenograft nude mice model", "format": "in vivo", "experimental": "Lastly, the in vivo anticancer activity of Ru5 was assessed via a A549 xenograft nude mice model (Fig. 5A). Mice were treated with PBS, cisplatin (5 mg kg^−1) or Ru5 (5 mg kg^−1) for 14 days, during which body weights and tumor volumes were monitored.\nFigure 5. […] (A) Schematic illustration of in vivo therapeutic protocol. (B) Graphs of tumor volumes of nude mice after treatment with Ru5 (5 mg kg^−1), cisplatin (5 mg kg^−1) and PBS. The intratumoral injections were performed every 7 days. Data are presented as means ± SD, n = 5. (C) Immunohistochemical analysis of hematoxylin-eosin (H&E) staining in tumor sections from mice with different treatments. Scale bar: 50 μm. (D) Tumors separated from nude mice. (E) The average body weight of the mice in each group during the treatment process. Data are presented as means ± SD, n = 5. (F) H&E staining of the main organs from mice with different treatments. Scale bar: 100 μm."}, "Ru5-treated cells": {"test_system": "Ru5-treated cells", "assay": "Effect of cell death inhibitors on antiproliferative activity", "format": "cell-based", "details": "24 h", "experimental": "Figure 4. Ru5 induces mitophagy and ferroptosis and inhibits EMT in vitro. (A) TEM images of A549 cells treated with vehicle (1% DMSO) or Ru5 (10 μM, 12 h). Red rectangles represent the region enlarged. Scale bar: 5 μm and 500 nm (enlarged). (B) The morphological examination of mitochondria in A549 cells treated with Ru5 (10 μM) for the indicated time intervals. MTG: λex = 514 nm; λem = 540 ± 20 nm. LTDR: λex = 633 nm; λem = 700 ± 20 nm. Scale bar: 20 μm. (C) Western blotting analysis showing the impact of Ru5 (24 h) on the expression of proteins related to mitochondrial dysfunction and ferroptosis. (D and E) The impact of different inhibitors on antiproliferative activity of Ru5 (24 h). (F) RT-qPCR analysis of EMT-related genes in A549 cells after Ru5 (10 μM, 12 h) treatment. (G) The impact of Ru5 (5 μM) on the migration of A549 cells was measured by a wound healing assay. Scale bar: 100 μm. (H) Quantitative analysis of the impact of Ru5 on wound healing. (I) Selective images of the impact of Ru5 (5 μM, 48 h) on the migration of A549 cells detected by transwell assay. Scale bar: 100 μm. Data are presented as means ± SD from three independent experiments. *P ≤ 0.05, **P ≤ 0.01, ***P ≤ 0.001, by Student's t-test.\nWe then used different specific inhibitors to further confirm the modes of cell death induced by Ru5. These inhibitors act on autophagy (3-methyladenine, 3-MA, Fig. 4D), ferroptosis (liproxstatin-1, Lip-1, Fig. 4E), necroptosis (necrostatin-1, Nec-1, Fig. S47A) and apoptosis (Z-VAD-FMK, Fig. S47B). The effect of 3-MA on the antiproliferative activity of Ru5 is concentration-dependent, with lower and higher concentrations enhancing and inhibiting the antiproliferative activity of Ru5, respectively. Thus, Ru5 induces cytoprotective autophagy at lower concentrations, while autophagic cell death is induced at higher concentrations. As expected, Lip-1 can relieve the antiproliferative activity of Ru5. However, Nec-1 and Z-VAD-FMK show no effect on the cell viability of Ru5-treated cells."}}}
{"smiles": "F[P-](F)(F)(F)(F)F.F[P-](F)(F)(F)(F)F.[Ru+2].c1ccc2c(c1)[nH]c1c(-c3ncc[nH]3)nccc12.c1cnc2c(c1)ccc1cccnc12.c1cnc2c(c1)ccc1cccnc12", "note": "[Ru5]", "values": [{"measurement": "Effect of siRNA-mediated knockdown of ATPase on anticancer effects", "setting": "A549 cells", "value": "alleviates"}, {"measurement": "Body weight loss", "setting": "A549 xenograft; 5 mg kg−1, 14 days", "value": "no significant body weight loss"}, {"measurement": "Organ damage (H&E staining of the main organs)", "setting": "A549 xenograft; 5 mg kg−1, 14 days", "value": "no significant"}, {"measurement": "Tumor inhibition compared with cisplatin and PBS", "setting": "A549 xenograft; 5 mg kg−1, 14 days", "value": "better tumor inhibition"}, {"measurement": "Tumor growth inhibitory rate", "setting": "A549 xenograft; 5 mg kg−1, intratumoral injection every 7 days, 14 days, compared with the control groups", "value": "~89.6", "unit": "%"}, {"measurement": "Effect of 3-MA (autophagy inhibitor) on antiproliferative activity", "setting": "Ru5-treated cells", "value": "concentration-dependent"}, {"measurement": "Effect of Lip-1 (ferroptosis inhibitor) on antiproliferative activity", "setting": "Ru5-treated cells", "value": "relieve"}, {"measurement": "Effect of Nec-1 (necroptosis inhibitor) on cell viability", "setting": "Ru5-treated cells", "value": "no effect"}, {"measurement": "Effect of Z-VAD-FMK (apoptosis inhibitor) on cell viability", "setting": "Ru5-treated cells", "value": "no effect"}]}
